HELM strings list units from the 5' end as sugar, base in round brackets, then linkage (d deoxyribose, r ribose, m 2'-O-methyl, p phosphodiester). Strings are as the collection lists them; they lack the last nucleoside at the 3' end of the tested compound. [moe] = 2'-O-(2-methoxyethyl) (MOE); [sp] = phosphorothioate linkage; [m5C] = 5-methylcytosine

The target of the data set is APP. In words: mouse, dose not given. To be noted: ASO.
As to “RNA1{[moe](G)[sp].[moe]([m5C])p.[moe](A)p.[moe](T)p.[moe]([m5C])[sp].d(T)[sp].d(T)[sp].d(T)[sp].d(T)[sp].d(A)[sp].d([m5C])[sp].d(T)[sp].d(A)[sp].d(T)[sp].d([m5C])[sp].[moe](T)p.[moe](G)p.[moe]([m5C])[sp].[moe]([m5C])}$$$$ (last 3' nucleoside missing)”, the 3 h FOB score amounted to 0 score 0-7.
Turning to “RNA1{[moe]([m5C])[sp].[moe](T)p.[moe](T)p.[moe](A)p.[moe]([m5C])[sp].d(A)[sp].d(T)[sp].d([m5C])[sp].d(A)[sp].d(T)[sp].d(T)[sp].d(T)[sp].d(T)[sp].d([m5C])[sp].d(T)[sp].[moe](T)p.[moe](G)p.[moe]([m5C])[sp].[moe](A)}$$$$ (last 3' nucleoside missing)”, the 3 h FOB score came to 1 score 0-7.
“RNA1{[moe](G)[sp].[moe]([m5C])p.[moe](G)p.[moe]([m5C])p.[moe](A)[sp].d(T)[sp].d(T)[sp].d(T)[sp].d(A)[sp].d(T)[sp].d(A)[sp].d([m5C])[sp].d(A)[sp].d(A)[sp].d(T)[sp].[moe](A)p.[moe](T)p.[moe](A)[sp].[moe]([m5C])}$$$$ (last 3' nucleoside missing)” gave a 3 h FOB score of 0 score 0-7.
“RNA1{[moe]([m5C])[sp].[moe](T)p.[moe]([m5C])p.[moe]([m5C])p.[moe](A)p.[moe](A)[sp].d(T)[sp].d(T)[sp].d(T)[sp].d(T)[sp].d(A)[sp].d(A)[sp].d([m5C])[sp].d(T)[sp].d(T)[sp].d(G)[sp].[moe]([m5C])p.[moe](A)[sp].[moe]([m5C])}$$$$ (last 3' nucleoside missing)” yielded a 3 h FOB score of 0 score 0-7.
Substance “RNA1{[moe](A)[sp].[moe](G)p.[moe](A)p.[moe](T)p.[moe](A)[sp].d([m5C])[sp].d(T)[sp].d(T)[sp].d(G)[sp].d(T)[sp].d([m5C])[sp].d(A)[sp].d(A)[sp].d([m5C])[sp].d(G)[sp].[moe](G)p.[moe]([m5C])p.[moe](A)[sp].[moe](T)}$$$$ (last 3' nucleoside missing)” yielded a 3 h FOB score of 2.33 score 0-7.
With “RNA1{[moe](T)[sp].[moe]([m5C])p.[moe]([m5C])p.[moe]([m5C])p.[moe](A)[sp].d(T)[sp].d(A)[sp].d([m5C])[sp].d(A)[sp].d(T)[sp].d(G)[sp].d(A)[sp].d(T)[sp].d(T)[sp].d(T)[sp].[moe](T)p.[moe](A)p.[moe](G)[sp].[moe](G)}$$$$ (last 3' nucleoside missing)” the figure was 1.25 score 0-7; with “RNA1{[moe](A)[sp].[moe](T)p.[moe](G)p.[moe](G)p.[moe](A)[sp].d(T)[sp].d([m5C])[sp].d(T)[sp].d(G)[sp].d(A)[sp].d(A)[sp].d(T)[sp].d([m5C])[sp].d([m5C])[sp].d([m5C])[sp].[moe](A)p.[moe]([m5C])p.[moe](T)[sp].[moe](T)}$$$$ (last 3' nucleoside missing)”, 1 score 0-7; with “RNA1{[moe](A)[sp].[moe](A)p.[moe](G)p.[moe]([m5C])p.[moe](T)[sp].d(T)[sp].d(A)[sp].d([m5C])[sp].d(A)[sp].d(T)[sp].d([m5C])[sp].d(A)[sp].d(T)[sp].d(T)[sp].d(T)[sp].[moe](T)p.[moe]([m5C])p.[moe](T)[sp].[moe](T)}$$$$ (last 3' nucleoside missing)”, 1.33 score 0-7.
With “RNA1{[moe](G)[sp].[moe]([m5C])p.[moe](T)p.[moe](A)p.[moe](T)[sp].d(G)[sp].d(A)[sp].d([m5C])[sp].d(A)[sp].d(A)[sp].d([m5C])[sp].d(A)[sp].d([m5C])[sp].d([m5C])[sp].d(G)[sp].[moe]([m5C])p.[moe]([m5C])p.[moe]([m5C])[sp].[moe](A)}$$$$ (last 3' nucleoside missing)” the figure was 1 score 0-7.
As to “RNA1{[moe](G)[sp].[moe]([m5C])p.[moe](A)p.[moe]([m5C])p.[moe](A)[sp].d(A)[sp].d([m5C])[sp].d(T)[sp].d(T)[sp].d(T)[sp].d(A)[sp].d(T)[sp].d(T)[sp].d(T)[sp].d([m5C])[sp].[moe](T)p.[moe](A)p.[moe](G)[sp].[moe](A)}$$$$ (last 3' nucleoside missing)”, the 3 h FOB score was determined as 1 score 0-7.
Next, “RNA1{[moe](G)[sp].[moe](A)p.[moe](A)p.[moe]([m5C])p.[moe](T)[sp].d([m5C])[sp].d(G)[sp].d(A)[sp].d(A)[sp].d([m5C])[sp].d([m5C])[sp].d(A)[sp].d([m5C])[sp].d([m5C])[sp].d(T)[sp].[moe]([m5C])p.[moe](T)p.[moe](T)[sp].[moe]([m5C])}$$$$ (last 3' nucleoside missing)”: 1 score 0-7.
Next, “RNA1{[moe](G)[sp].[moe](T)p.[moe](T)p.[moe](T)p.[moe](A)p.[moe]([m5C])[sp].d([m5C])[sp].d(T)[sp].d(T)[sp].d(T)[sp].d(A)[sp].d(A)[sp].d([m5C])[sp].d(A)[sp].d(T)[sp].d(T)[sp].[moe]([m5C])p.[moe]([m5C])[sp].[moe](T)}$$$$ (last 3' nucleoside missing)”: 2.75 score 0-7.
With “RNA1{[moe](G)[sp].[moe]([m5C])p.[moe](A)p.[moe](T)p.[moe](T)[sp].d([m5C])[sp].d(T)[sp].d([m5C])[sp].d(T)[sp].d(T)[sp].d(A)[sp].d(T)[sp].d(A)[sp].d(T)[sp].d(T)[sp].[moe]([m5C])p.[moe]([m5C])p.[moe](T)[sp].[moe](T)}$$$$ (last 3' nucleoside missing)” the figure was 0 score 0-7; with “RNA1{[moe]([m5C])[sp].[moe]([m5C])[sp].[moe]([m5C])p.[moe](A)p.[moe]([m5C])[sp].d(T)[sp].d(T)[sp].d([m5C])[sp].d([m5C])[sp].d([m5C])[sp].d(A)[sp].d(T)[sp].d(T)[sp].d([m5C])[sp].d(T)[sp].[moe](G)p.[moe](G)p.[moe](A)[sp].[moe]([m5C])}$$$$ (last 3' nucleoside missing)”, 0 score 0-7; with “RNA1{[moe](G)[sp].[moe]([m5C])p.[moe](A)p.[moe](G)p.[moe](A)[sp].d(A)[sp].d(T)[sp].d(A)[sp].d([m5C])[sp].d([m5C])[sp].d(A)[sp].d(A)[sp].d(G)[sp].d(T)[sp].d(T)[sp].[moe](A)p.[moe](G)p.[moe](T)[sp].[moe](A)}$$$$ (last 3' nucleoside missing)”, 0.25 score 0-7.
Substance “RNA1{[moe](A)[sp].[moe](A)p.[moe](G)p.[moe](G)p.[moe](G)[sp].d([m5C])[sp].d(A)[sp].d(T)[sp].d([m5C])[sp].d(A)[sp].d([m5C])[sp].d(T)[sp].d(T)[sp].d(A)[sp].d([m5C])[sp].[moe](A)p.[moe](A)p.[moe](A)[sp].[moe]([m5C])}$$$$ (last 3' nucleoside missing)” yielded a 3 h FOB score of 0 score 0-7.
“RNA1{[moe](A)[sp].[moe](G)p.[moe](G)p.[moe](A)p.[moe](A)[sp].d([m5C])[sp].d(T)[sp].d([m5C])[sp].d(G)[sp].d(A)[sp].d(A)[sp].d([m5C])[sp].d([m5C])[sp].d(A)[sp].d([m5C])[sp].[moe]([m5C])p.[moe](T)p.[moe]([m5C])[sp].[moe](T)}$$$$ (last 3' nucleoside missing)” showed a 3 h FOB score of 1 score 0-7.
Turning to “RNA1{[moe](A)[sp].[moe](G)p.[moe](G)p.[moe](A)p.[moe]([m5C])[sp].d(A)[sp].d(T)[sp].d(T)[sp].d([m5C])[sp].d(A)[sp].d(T)[sp].d(T)[sp].d(T)[sp].d(T)[sp].d(T)[sp].[moe](G)p.[moe](A)p.[moe]([m5C])[sp].[moe]([m5C])}$$$$ (last 3' nucleoside missing)”, the 3 h FOB score worked out at 1 score 0-7.
With “RNA1{[moe](T)[sp].[moe](A)p.[moe](T)p.[moe](G)p.[moe](A)[sp].d([m5C])[sp].d(A)[sp].d(A)[sp].d([m5C])[sp].d(A)[sp].d([m5C])[sp].d([m5C])[sp].d(G)[sp].d([m5C])[sp].d([m5C])[sp].[moe]([m5C])p.[moe](A)p.[moe]([m5C])[sp].[moe]([m5C])}$$$$ (last 3' nucleoside missing)” the figure was 4 score 0-7; with “RNA1{[moe](G)[sp].[moe]([m5C])p.[moe](A)p.[moe](G)p.[moe](A)[sp].d(A)[sp].d(T)[sp].d([m5C])[sp].d([m5C])[sp].d(A)[sp].d([m5C])[sp].d(A)[sp].d(T)[sp].d(T)[sp].d(G)[sp].[moe](T)p.[moe]([m5C])p.[moe](A)[sp].[moe]([m5C])}$$$$ (last 3' nucleoside missing)”, 1.5 score 0-7.
With “RNA1{[moe](G)[sp].[moe](T)p.[moe](A)p.[moe](T)p.[moe]([m5C])[sp].d([m5C])[sp].d(T)[sp].d([m5C])[sp].d(T)[sp].d(T)[sp].d(A)[sp].d(A)[sp].d(T)[sp].d(T)[sp].d([m5C])[sp].[moe]([m5C])p.[moe](T)p.[moe](A)[sp].[moe](T)}$$$$ (last 3' nucleoside missing)”, the 3 h FOB score turned out to be 0 score 0-7.
Next, “RNA1{[moe](T)[sp].[moe]([m5C])p.[moe](A)p.[moe](T)p.[moe](A)[sp].d(T)[sp].d(T)[sp].d(G)[sp].d(T)[sp].d([m5C])[sp].d(T)[sp].d(T)[sp].d([m5C])[sp].d(A)[sp].d(A)[sp].[moe](T)p.[moe](G)p.[moe](T)[sp].[moe](G)}$$$$ (last 3' nucleoside missing)”: 2 score 0-7; “RNA1{[moe](G)[sp].[moe](T)p.[moe](T)p.[moe](G)p.[moe](A)[sp].d(A)[sp].d(T)[sp].d(T)[sp].d(T)[sp].d([m5C])[sp].d(T)[sp].d(T)[sp].d(A)[sp].d([m5C])[sp].d(A)[sp].[moe]([m5C])p.[moe](T)p.[moe](T)[sp].[moe](T)}$$$$ (last 3' nucleoside missing)”: 0 score 0-7.
Next, “RNA1{[moe]([m5C])[sp].[moe]([m5C])p.[moe](A)p.[moe](A)p.[moe](A)[sp].d(G)[sp].d(A)[sp].d(T)[sp].d(T)[sp].d([m5C])[sp].d([m5C])[sp].d(A)[sp].d([m5C])[sp].d(T)[sp].d(T)[sp].[moe](T)p.[moe]([m5C])p.[moe](T)[sp].[moe]([m5C])}$$$$ (last 3' nucleoside missing)”: 0 score 0-7; “RNA1{[moe](A)[sp].[moe](T)p.[moe](A)p.[moe](T)p.[moe](T)p.[moe](T)p.d(G)[sp].d(T)[sp].d([m5C])[sp].d(A)[sp].d(A)[sp].d([m5C])[sp].d([m5C])[sp].d([m5C])[sp].d(A)[sp].d(G)[sp].[moe](A)p.[moe](A)[sp].[moe]([m5C])}$$$$ (last 3' nucleoside missing)”: 1 score 0-7.
